{
  "source": "patent US9815815B2",
  "about": "“Non-selective kinase inhibitors” (GILEAD SCIENCES, INC., priority 2013, dated 2017)",
  "key": {"[1]": {"test_system": "PDGFBB stimulated phosphorylation of ERK1 and ERK2", "test": "PDGFBB stimulated phosphorylation of ERK1 and ERK2 in human fetal lung fibroblasts", "type": "cell-based", "settings": "for PDGFBB stimulated ppERK1 formation: 1 uM"}, "[2]": {"test_system": "PDGFAA stimulated phosphorylation of ERK1 and ERK2", "test": "PDGFAA stimulated phosphorylation of ERK1 and ERK2 in human fetal lung fibroblasts", "type": "cell-based", "settings": "1 uM"}, "[3]": {"test_system": "AKT phosphorylation", "settings": "0.1 μM; PASMC from control and monocrotaline treated rats; cited from earlier work"}, "[4]": {"test_system": "PDGFBB stimulated AKT phosphorylation (SER473)", "settings": "5 μM; PDGFRβ null and PDGFRα null cell lines; cited from earlier work"}, "[5]": {"test_system": "rat MCT+PN model", "test": "Telemetry study of PA pressure in the rat MCT+PN model", "type": "in vivo", "settings": "for PA systolic pressure: imatinib telemetry study (study 4), 8 min 3x/day", "experimental": "Efficacy study in the rat MCT+PN model. Pneumonectomy and implantation of a TRM53P telemetry monitor in the pulmonary artery (Telemetry Research, New Zealand and ADlnstruments, Colorado) was carried out in rats. Two weeks after MCT, PK10453 (Structure 2) was administered three times daily for 1 week. […] Sampling of PA pressure was performed 5 min before each morning dose in ambulatory animals in room air (estimated atmospheric pressure 716 mm Hg based on elevation of animal facility). […] Telemetry data was obtained for 10 min daily before each morning dose for this protocol."}, "[6]": {"test_system": "rat MCT model", "method": "At the end of the study RVSP pressure was measured; lung and heart fixed in formalin. For measurement of RVSP animals were sedated with isoflurane, intubated via a tracheostomy, and ventilated with a TOPOVENT pressure regulated ventilator (peak inspiratory pressure 18 cm H2O, PEEP 5 cm). After sternotomy, a Scisense high fidelity catheter inserted via the RV apex.\nHistology and morphometric analysis. At the end of the study, the heart and lungs were removed from ventilated animals under general anesthesia. Heparinized saline was infused under pressure through the main pulmonary artery. […] The heart was removed, and the RV free wall, interventricular septum and LV free wall dissected and weighed. Buffered formalin (10%) was infused under pressure both through the pulmonary artery and the trachea. Morphometric analysis was performed on H&E stained formalin fixed tissue sectioned at 8 μm. The media area and lumen area of pulmonary arterioles were measured with Image J software by a technician blinded to treatment group. Measurements were made on 20 pulmonary arterioles per section. The ratio of the lumen area to the total media area was determined This ratio normalizes the variation in total pulmonary arteriole area. […] Briefly, pre-capillary arterioles were assigned grade 0 for no evidence of neointimal lesions, grade 1 for less than 50% luminal occlusion, and grade 2 for greater than 50% occlusion."}, "[7]": {"test_system": "PDGFBB stimulated AKT phosphorylation", "test": "In cell Western (ICW), PDGFBB stimulated AKT phosphorylation in human fetal lung fibroblasts", "type": "cell-based", "settings": "comparison in words", "experimental": "In cell Western (ICW). […] HLFs were maintained in subculture at no more than 6 passages in DMEM with 5% FBS and 4 mM Glutamax at 37° C., 5% CO2. HLFs were plated and grown to 70-80% confluence in 96 well plates then serum-starved for 48 hours. […] Antibodies were detected using IRDye 680LT goat anti-mouse IgG and IRDye 800W goat a-rabbit IgG conjugated antibodies. After washing, the signal was quantified using an Odyssey Infrared Imaging System (LI-COR). Phosphoprotein signal (800 nm) was normalized to total protein signal (700 nm) acquired from each well and experimental duplicates on same plate were averaged and reported."}},
  "data": [
    {"smiles": "Cc1ccc(NC(=O)c2ccc(CN3CCN(C)CC3)cc2)cc1Nc1nccc(-c2cccnc2)n1", "note": "[Imatinib]", "values": [
      {"measurement": "PDGFBB stimulated ppERK1 formation", "setting": "[1]", "value": "no effect"},
      {"measurement": "decreasing PDGF AA stimulated ppERK1 and ppERK2 formation", "setting": "[2]", "value": "equally effective"},
      {"measurement": "phosphorylation of AKT at Thr308", "setting": "[3]", "value": "no effect"},
      {"measurement": "PDGFBB stimulated AKT phosphorylation (SER473)", "setting": "[4]", "value": "blocked"},
      {"measurement": "efficacy in the MCT+PN model, in words", "setting": "[5]; by inhalation", "value": "not effective"},
      {"measurement": "PA systolic pressure", "setting": "[5]; day 1", "value": "41.5±3.5", "unit": "mm Hg"},
      {"measurement": "PA systolic pressure", "setting": "[5]; treatment day 9", "value": "75.1±7", "unit": "mm Hg"},
      {"measurement": "RV end systolic pressure", "setting": "[6]; 8 min inhalation 3x/day, two weeks", "value": "31.8±1.8", "unit": "mm Hg"},
      {"measurement": "efficacy in the MCT model, in words", "setting": "[6]; given by inhalation", "value": "equally effective"}
    ]},
    {"smiles": "COc1cc(-c2cncc(N[C@@H](C)c3cccc(NC(=O)c4cnc(C#N)nc4)c3)n2)ccc1O", "note": "[PK10467]", "values": [
      {"measurement": "IC50 for inhibiting PDGFBB stimulated AKT phosphorylation, compared to imatinib", "setting": "[7]", "value": "lower IC50 concentrations compared to imatinib"}
    ]},
    {"smiles": "C=CS(=O)(=O)NCc1ccc(C(=O)Nc2cccc([C@H](C)Nc3cncc(-c4ccc(O)c(OC)c4)n3)c2)cc1", "note": "[PK10468]", "values": [
      {"measurement": "IC50 for inhibiting PDGFBB stimulated AKT phosphorylation, compared to imatinib", "setting": "[7]", "value": "lower IC50 concentrations compared to imatinib"}
    ]},
    {"smiles": "COc1cc(-c2cncc(N[C@@H](C)c3cccc(NC(=O)c4cncc(C)c4)c3)n2)ccc1C", "note": "[PK10569]", "values": [
      {"measurement": "IC50 for inhibiting PDGFBB stimulated AKT phosphorylation, compared to imatinib", "setting": "[7]", "value": "lower IC50 concentrations compared to imatinib"}
    ]},
    {"smiles": "COc1ccc(-c2cncc(N[C@@H](C)c3cccc(NC(=O)c4cncc(C)c4)c3)n2)cc1OC", "note": "[PK10571]", "values": [
      {"measurement": "PDGFBB stimulated ppERK1 formation", "setting": "[1]", "value": "effective"},
      {"measurement": "decreasing PDGF BB stimulated ppERK1 and ppERK2, compared to imatinib", "setting": "[1]; 1 uM and 10 uM", "value": "more effective"},
      {"measurement": "ratio diphosphorylated ERK2 to total ERK2 (ppERK2/ERK2)", "setting": "[1]; PDGFAA or PDGFBB stimulation (10 ng/ml), 1 uM and 10 uM", "value": "significantly decreased"},
      {"measurement": "ratio diphosphorylated ERK1 to total ERK1 (ppERK1/ERK1)", "setting": "[1]; PDGFAA or PDGFBB stimulation, 1 μM and 10 μM", "value": "significantly decreased"},
      {"measurement": "decreasing PDGF AA stimulated ppERK1 and ppERK2 formation", "setting": "[2]", "value": "equally effective"},
      {"measurement": "IC50 for inhibiting PDGFBB stimulated AKT phosphorylation, compared to imatinib", "setting": "[7]", "value": "lower IC50 concentrations compared to imatinib"}
    ]}
  ]
}
